The source made the active and inactive calls. The calls are words filed in the database; no cut-off is given here.

This note sets out measurements from ChEMBL document CHEMBL5537157, “Selective Antitumor Effect and Lower Toxicity of Mitochondrion-Targeting Derivatization of Triptolide” (J Med Chem, 2024).

Data set [1] relates to NCI-H460. The data set can be described thus: Cytotoxicity against human NCI-H460 cells assessed as inhibition of cell viability incubated for 48 hrs by MTT assay. As to conditions: NCI-H460, 48 h. Format: functional, cell-based. On the technique in general: Tetrazolium dyes change colour on reduction, which living cells bring about.
For data set [2], the system named is NCI-H1975. Description: Cytotoxicity against human NCI-H1975 cells assessed as inhibition of cell viability incubated for 48 hrs by MTT assay. As to conditions: NCI-H1975, 48 h. Format: functional, cell-based.
The subject of data set [3] is MCF7. Description: Cytotoxicity against human MCF7 cells assessed as inhibition of cell viability incubated for 48 hrs by MTT assay. Type of data set: functional, cell-based. As to conditions: MCF7, 48 h.
Data set [4] concerns A549. Description: Cytotoxicity against human A549 cells assessed as inhibition of cell viability incubated for 48 hrs by MTT assay. As to conditions: A549, 48 h. Format: functional, cell-based.
The nature of data set [5]: Cytotoxicity against human BEAS-2B cells assessed as inhibition of cell viability incubated for 48 hrs by MTT assay. Type of data set: toxicity, cell-based.
Data set [6] can be described thus: Drug accumulation in mitochondria of human NCI-H1975 cells at 120 nM incubated for 5 hrs by Red CMXRos probe based analysis. Type of data set: ADME. As to conditions: nci-h1975, 5 h, 0.12 µM.
For data set [7], the system named is NCI-H1975. The data set can be described thus: Inhibition of cell viability in human NCI-H1975 cells assessed as effect on cell index at 80 nM by real-time cell analysis. Type of data set: functional, cell-based.
The subject of data set [8] is NCI-H1975. Description: Cytotoxicity against human NCI-H1975 cells assessed as cell growth inhibition incubated for 48 hrs by MTT assay relative to control. Type of data set: functional.
Data set [9] concerns MCF7. The data set can be described thus: Cytotoxicity against human MCF7 cells assessed as cell growth inhibition incubated for 48 hrs by MTT assay. Type of data set: functional, cell-based.
Data set [10] deals with A549. Description: Cytotoxicity against human A549 cells assessed as cell growth inhibition incubated for 48 hrs by MTT assay. Format: functional, cell-based.
The test system of data set [11] is NCI-H460. Description: Cytotoxicity against human NCI-H460 cells assessed as cell growth inhibition incubated for 48 hrs by MTT assay. Type of data set: functional, cell-based.
The test system of another data set is BEAS-2B. Description: Cytotoxicity against human BEAS-2B cells assessed as cell growth inhibition incubated for 48 hrs by MTT assay. Format: toxicity, cell-based.
Data set [12] has as its system NCI-H1975. The data set can be described thus: Cytotoxicity against human NCI-H1975 cells assessed as cell growth inhibition incubated for 48 hrs by MTT assay. Format: functional, cell-based.

Usually IC50 stands for the concentration that gives 50% inhibition. Take `CC(C)[C@]12O[C@H]1[C@@H]1O[C@]13[C@]1(O[C@H]1C[C@H]1C4=C(CC[C@@]13C)C(=O)OC4)[C@]2(O)C=O`: the IC50 in the data set on NCI-H460 [1] was > 50 µM; in the data set on NCI-H1975 [2] it was > 50 µM; in the data set with MCF7 [3], > 100 µM; in the data set on A549 [4], > 100 µM. For the same molecule, the IC50 at 48 h in data set [5] is > 100 µM.
Turning to `CC(C)[C@]12O[C@H]1[C@@H]1O[C@]13[C@]1(O[C@H]1C[C@H]1C4=C(CC[C@@]13C)C(=O)OC4)[C@]2(O)COC(=O)CCCCCCC[P+](c1ccccc1)(c1ccccc1)c1ccccc1`, the half-maximal inhibitory concentration (IC50) in the data set with NCI-H460 [1] is 29.9 µM; with NCI-H1975 [2] it was 24.9 µM; in the data set on MCF7 [3] it was > 100 µM; in the data set on A549 [4], 27.3 µM. The IC50 at 48 h in data set [5] was found to be 21.7 µM.
The matching figures for `CC(C)[C@]12O[C@H]1[C@@H]1O[C@]13[C@]1(O[C@H]1C[C@H]1C4=C(CC[C@@]13C)C(=O)OC4)[C@]2(O)CO`: > 50 µM, > 100 µM, > 100 µM, > 100 µM and > 100 µM.
Take `C[n+]1ccc(/C=C/c2c[nH]c3ccccc23)cc1`: the IC50 is > 50 µM in the data set with NCI-H460 [1], > 50 µM in the data set with NCI-H1975 [2], > 100 µM with MCF7 [3] and > 100 µM in the data set on A549 [4]. In addition, the IC50 at 48 h in data set [5] was > 100 µM.
On to `CC(C)[C@]12O[C@H]1[C@@H]1O[C@]13[C@]1(O[C@H]1C[C@H]1C4=C(CC[C@@]13C)C(=O)OC4)[C@]2(O)COC(=O)CCCC[P+](c1ccccc1)(c1ccccc1)c1ccccc1`, for which the IC50 in the data set on NCI-H460 [1], in the data set with NCI-H1975 [2], in the data set on MCF7 [3] and in the data set with A549 [4] was > 100 µM throughout. Besides, the half-inhibitory concentration (IC50) at 48 h in data set [5] is > 100 µM.
As for `CC(C)[C@]12O[C@H]1[C@@H]1O[C@]13[C@]1(O[C@H]1C[C@H]1C4=C(CC[C@@]13C)C(=O)OC4)[C@]2(O)COC(=O)CCCCCCCC[P+](c1ccccc1)(c1ccccc1)c1ccccc1`, the IC50 amounted to 27.7 µM with NCI-H460 [1], 24.7 µM in the data set with NCI-H1975 [2], 20.9 µM in the data set on MCF7 [3] and 21.7 µM in the data set on A549 [4]. In [5], the IC50 at 48 h was 23.4 µM.
For the molecule `CC(C)[C@]12O[C@H]1[C@@H]1O[C@]13[C@]1(O[C@H]1C[C@H]1C4=C(CC[C@@]13C)C(=O)OC4)[C@@H]2OC(=O)CCCCCCCCCC[n+]1ccc(/C=C/c2c[nH]c3ccccc23)cc1`, the figures for the IC50 in the data set on NCI-H1975 [2], with MCF7 [3] and in the data set on A549 [4] were 0.34 µM, 5.26 µM and > 50 µM, respectively. In addition, in data set [5], the IC50 at 48 h came out at 12.7 µM.
Take `CC(C)[C@]12O[C@H]1[C@@H]1O[C@]13[C@]1(O[C@H]1C[C@H]1C4=C(CC[C@@]13C)C(=O)OC4)[C@]2(O)COC(=O)CCCCCCCCC[P+](c1ccccc1)(c1ccccc1)c1ccccc1`: the IC50 with NCI-H460 [1] turned out to be 26.7 µM; in the data set with NCI-H1975 [2] it was 18.6 µM; with MCF7 [3], 30.2 µM; in the data set with A549 [4], 23 µM. Besides, the 50% inhibitory concentration (IC50) at 48 h in [5] was determined as 23.6 µM.
For `CC(C)[C@]12O[C@H]1[C@@H]1O[C@]13[C@]1(O[C@H]1C[C@H]1C4=C(CC[C@@]13C)C(=O)OC4)[C@@H]2OC(=O)CCCCCCC[n+]1ccc(/C=C/c2c[nH]c3ccccc23)cc1.[Br-]`, the 50% inhibitory concentration (IC50) was 17.5 µM in the data set with NCI-H460 [1], 0.4 µM in the data set with NCI-H1975 [2], 7.09 µM with MCF7 [3] and > 50 µM with A549 [4]. Besides, the Drug uptake result in [6] is listed as “Active”. For the same molecule, the IC50 at 48 h in data set [5] was determined as 48.8 µM. Moreover, in the data set with NCI-H1975 [7], the inhibition result was “Active”.
In the case of `CC(C)[C@]12O[C@H]1[C@@H]1O[C@]13[C@]1(O[C@H]1C[C@H]1C4=C(CC[C@@]13C)C(=O)OC4)[C@]2(O)COC(=O)CCCCC[P+](c1ccccc1)(c1ccccc1)c1ccccc1`, the 50% inhibitory concentration (IC50) was > 50 µM in the data set on NCI-H460 [1], > 100 µM in the data set on NCI-H1975 [2], > 50 µM with MCF7 [3] and > 100 µM in the data set on A549 [4]. The IC50 at 48 h in data set [5] is > 50 µM.
As to `COc1cccc2c1C(=O)c1c(O)c3c(c(O)c1C2=O)C[C@@](O)(C(=O)CO)C[C@@H]3O[C@H]1C[C@H](N)[C@H](O)[C@H](C)O1` [DOXORUBICIN], the IC50 worked out at 0.581 µM with NCI-H460 [1], 2.64 µM in the data set with NCI-H1975 [2] and 2.54 µM in the data set with A549 [4]. Also, the IC50 at 48 h in [5] worked out at 42 µM.
For `CC(C)[C@]12O[C@H]1[C@@H]1O[C@]13[C@]1(O[C@H]1C[C@H]1C4=C(CC[C@@]13C)C(=O)OC4)[C@@H]2OC(=O)CCCCC[n+]1ccc(/C=C/c2c[nH]c3ccccc23)cc1`, the IC50 in the data set with NCI-H460 [1] was 3.12 µM; with NCI-H1975 [2], 2.86 µM; in the data set with MCF7 [3], 16.7 µM; in the data set on A549 [4], > 50 µM. Further, the IC50 at 48 h in data set [5] stood at 94.3 µM.
For `CC(C)[C@]12O[C@H]1[C@@H]1O[C@]13[C@]1(O[C@H]1C[C@H]1C4=C(CC[C@@]13C)C(=O)OC4)[C@@H]2OC(=O)CCCCCC[n+]1ccc(/C=C/c2c[nH]c3ccccc23)cc1`, the IC50 in the data set on NCI-H460 [1] turned out to be 11.9 µM; in the data set with NCI-H1975 [2], 0.27 µM; in the data set on A549 [4] it was 47.8 µM. Also, the IC50 at 48 h in data set [5] is 27.9 µM.
Turning to `C1=CCC(P(c2ccccc2)c2ccccc2)C=C1` (stereo not given), the IC50 in the data set with NCI-H460 [1], in the data set on NCI-H1975 [2], in the data set on MCF7 [3] and in the data set with A549 [4] was > 100 µM throughout. Also, the IC50 at 48 h in data set [5] was > 100 µM.
Take `CC(C)[C@]12O[C@H]1[C@@H]1O[C@]13[C@]1(O[C@H]1C[C@H]1C4=C(CC[C@@]13C)C(=O)OC4)[C@@H]2OC(=O)CCCCC[P+](c1ccccc1)(c1ccccc1)c1ccccc1.[Br-]`: the IC50 in the data set on NCI-H460 [1] was > 10 µM; in the data set with NCI-H1975 [2], 0.14 µM; in the data set with MCF7 [3] it was > 10 µM; in the data set on A549 [4] it was > 10 µM. Further, the Imax with NCI-H1975 [8] is reported as ~65%. For the same molecule, the inhibition entry with MCF7 [9], in the data set with A549 [10], in the data set with NCI-H460 [11] and in the data set on NCI-H1975 [12] was “Dose-Dependent Effect” in each case. The IC50 at 48 h in [5] is > 10 µM. The “inhibition (INH)” value in the data set on BEAS-2B is given as “Dose-Dependent Effect”.
Take `CC(C)[C@]12O[C@H]1[C@@H]1O[C@]13[C@]1(O[C@H]1C[C@H]1C4=C(CC[C@@]13C)C(=O)OC4)[C@]2(O)COC(=O)CCCCCC[P+](c1ccccc1)(c1ccccc1)c1ccccc1`: the IC50 with NCI-H460 [1] is > 50 µM; in the data set on NCI-H1975 [2], > 30 µM; with MCF7 [3] it was > 50 µM; with A549 [4] it was 38.4 µM. The IC50 at 48 h in [5] is > 30 µM.
On to `CC(C)[C@]12O[C@H]1[C@@H]1O[C@]13[C@]1(O[C@H]1C[C@H]1C4=C(CC[C@@]13C)C(=O)OC4)[C@@H]2OC(=O)CCCCCCCCC[n+]1ccc(/C=C/c2c[nH]c3ccccc23)cc1`, for which the IC50 in the data set on NCI-H460 [1] was 5.09 µM; in the data set with NCI-H1975 [2], 0.44 µM; in the data set with MCF7 [3], 6.24 µM; in the data set on A549 [4] it was 24.9 µM. In [5], the IC50 at 48 h turned out to be 11.9 µM.
`CC(C)[C@]12O[C@H]1[C@@H]1O[C@]13[C@]1(O[C@H]1C[C@H]1C4=C(CC[C@@]13C)C(=O)OC4)[C@@H]2OC(=O)CCCC[n+]1ccc(/C=C/c2c[nH]c3ccccc23)cc1`: the IC50 is > 50 µM in the data set on NCI-H460 [1], 5.74 µM in the data set with NCI-H1975 [2], 47.2 µM with MCF7 [3] and > 50 µM with A549 [4]. Moreover, the IC50 at 48 h in data set [5] is 35.7 µM.
